Reference: US10351561B2, “Pyrazolo[3,4-b]pyridines and imidazo[1,5-b]pyridazines as PDE1 inhibitors” (H. Lundbeck A/S, priority 2016, dated 2019)

What was measured:
Format in all cases: biochemical
PDE1A = PDE1A (Homo sapiens, UniProt P54750); test: PDE1 inhibition assay (PDE1A), SPA with tritium labelled cAMP; conditions: 15 nM tritium labelled cAMP, 1 hr at room temperature, SPA beads
Procedure: (§1) PDE1A, PDE1B and PDE1C assays were performed as follows: the assays were performed in 60 μL samples containing a fixed amount of the PDE1 enzyme (sufficient to convert 20-25% of the cyclic nucleotide substrate), a buffer (50 mM HEPES (4-(2-hydroxyethyl)-1-piperazineethanesulfonic acid) pH 7.6; 10 mM MgCl2; 0.02% Tween20), 0.1 mg/ml BSA (bovine serum albumin), 15 nM tritium labelled cAMP and varying amounts of inhibitors. Reactions were initiated by addition of the cyclic nucleotide substrate, and reactions were allowed to proceed for 1 hr at room temperature before being terminated through mixing with 20 μL (0.2 mg) yttrium silicate SPA beads (PerkinElmer). The beads were allowed to settle for 1 hr in the dark before the plates were counted in a Wallac 1450 Microbeta counter. The measured signals were converted to activity relative to an uninhibited control (100%) and IC50 values were calculated using XIFit (model 205, IDBS).

PDE1B = PDE1B (Homo sapiens, UniProt Q01064); test: PDE1 inhibition assay (PDE1B), SPA with tritium labelled cAMP; conditions: 15 nM tritium labelled cAMP, 1 hr at room temperature, SPA beads; read-out: PDE1B, IC50
Chain of PDE1B (Q01064 whole entry): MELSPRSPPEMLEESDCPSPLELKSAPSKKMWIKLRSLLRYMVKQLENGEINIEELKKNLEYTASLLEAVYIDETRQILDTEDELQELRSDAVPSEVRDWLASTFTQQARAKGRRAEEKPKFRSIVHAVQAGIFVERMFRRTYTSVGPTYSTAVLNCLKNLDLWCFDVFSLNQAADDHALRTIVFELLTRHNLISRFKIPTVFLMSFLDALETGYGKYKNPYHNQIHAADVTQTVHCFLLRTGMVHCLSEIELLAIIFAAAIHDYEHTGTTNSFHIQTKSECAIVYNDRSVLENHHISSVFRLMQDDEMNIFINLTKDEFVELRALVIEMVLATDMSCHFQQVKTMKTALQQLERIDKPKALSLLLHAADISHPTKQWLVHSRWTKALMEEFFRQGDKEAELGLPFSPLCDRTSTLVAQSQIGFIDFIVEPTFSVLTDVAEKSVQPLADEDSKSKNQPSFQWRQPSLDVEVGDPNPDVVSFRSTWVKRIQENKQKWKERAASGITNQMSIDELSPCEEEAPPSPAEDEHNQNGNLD
Procedure: Reactions were initiated by addition of the cyclic nucleotide substrate, and reactions were allowed to proceed for 1 hr at room temperature before being terminated through mixing with 20 μL (0.2 mg) yttrium silicate SPA beads (PerkinElmer).

PDE1C = PDE1C (Homo sapiens, UniProt Q14123); test: PDE1 inhibition assay (PDE1C), SPA with tritium labelled cAMP; conditions: 15 nM tritium labelled cAMP, 1 hr at room temperature, SPA beads
Chain of PDE1C (Q14123 whole entry): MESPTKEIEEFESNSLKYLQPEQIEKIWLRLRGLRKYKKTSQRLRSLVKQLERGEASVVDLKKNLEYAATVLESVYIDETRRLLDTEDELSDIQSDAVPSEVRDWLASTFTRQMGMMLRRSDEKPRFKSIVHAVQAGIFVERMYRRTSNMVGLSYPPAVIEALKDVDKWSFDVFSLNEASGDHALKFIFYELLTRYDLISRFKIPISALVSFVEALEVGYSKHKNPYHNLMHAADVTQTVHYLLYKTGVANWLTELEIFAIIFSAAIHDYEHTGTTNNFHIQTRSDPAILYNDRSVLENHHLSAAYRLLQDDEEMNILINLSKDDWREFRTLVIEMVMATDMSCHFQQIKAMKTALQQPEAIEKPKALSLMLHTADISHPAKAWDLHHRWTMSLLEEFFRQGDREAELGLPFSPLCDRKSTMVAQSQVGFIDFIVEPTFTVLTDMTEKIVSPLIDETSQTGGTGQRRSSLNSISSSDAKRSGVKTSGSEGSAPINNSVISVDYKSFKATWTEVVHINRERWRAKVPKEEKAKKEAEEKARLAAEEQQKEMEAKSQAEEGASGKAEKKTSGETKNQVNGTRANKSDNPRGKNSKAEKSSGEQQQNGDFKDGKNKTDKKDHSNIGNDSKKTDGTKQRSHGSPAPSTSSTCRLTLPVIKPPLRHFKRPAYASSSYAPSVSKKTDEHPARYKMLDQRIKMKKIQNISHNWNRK
Procedure: as §1

Chain of PDE1A (P54750 whole entry): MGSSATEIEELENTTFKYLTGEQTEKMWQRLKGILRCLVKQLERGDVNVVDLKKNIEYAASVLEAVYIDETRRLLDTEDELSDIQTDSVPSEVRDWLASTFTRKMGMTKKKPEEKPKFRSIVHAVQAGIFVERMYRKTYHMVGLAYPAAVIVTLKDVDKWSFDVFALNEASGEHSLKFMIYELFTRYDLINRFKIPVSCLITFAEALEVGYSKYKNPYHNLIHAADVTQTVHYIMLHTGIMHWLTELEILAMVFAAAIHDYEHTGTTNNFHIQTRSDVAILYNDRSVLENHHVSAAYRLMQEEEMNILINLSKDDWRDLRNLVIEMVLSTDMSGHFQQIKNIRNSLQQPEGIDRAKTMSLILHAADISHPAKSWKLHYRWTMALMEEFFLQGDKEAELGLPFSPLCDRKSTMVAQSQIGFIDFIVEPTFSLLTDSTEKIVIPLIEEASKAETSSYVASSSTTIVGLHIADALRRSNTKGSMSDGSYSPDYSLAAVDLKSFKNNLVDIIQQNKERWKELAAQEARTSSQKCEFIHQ

Compound | IC50 (PDE1A) [nM] | IC50 (PDE1B) [nM] | IC50 (PDE1C) [nM]
CCOc1ncccc1-c1cc(NCc2ncn(C)n2)c2c(C(C)CC)nc(C)n2n1 (single isomer, unassigned; (+)) [Example 50, (+)-2-(2-ethoxy-3-pyridyl)-7-methyl-N-[(1-methyl-1,2,4-triazol-3-yl)methyl]-5-[1-methylpropyl]imidazo[1,5-b]pyridazin-4-amine] | 5.6 | 0.53 | 2.4
CCOc1ncccc1-c1cc(NCc2ncn(C)n2)c2c(C(C)CC)nc(C)n2n1 (single isomer, unassigned; (-)) [Example 49, (−)-2-(2-ethoxy-3-pyridyl)-7-methyl-N-[(1-methyl-1,2,4-triazol-3-yl)methyl]-5-[1-methylpropyl]imidazo[1,5-b]pyridazin-4-amine] | 14 | 1.4 | 7.6
CCOc1ncccc1-c1cc(NCc2coc(C)n2)c2c(C(C)C)nn(C)c2n1 [Example 2, 6-(2-ethoxy-3-pyridyl)-3-isopropyl-1-methyl-N-[(2-methyloxazol-4-yl)methyl]pyrazolo[3,4-b]pyridin-4-amine] | 81 | 15 | 99
CCOc1ncccc1-c1cc(NCc2cc[nH]n2)c2c(C(C)C)nn(C)c2n1 [Example 3, 6-(2-ethoxy-3-pyridyl)-3-isopropyl-1-methyl-N-(1H-pyrazol-3-ylmethyl)pyrazolo[3,4-b]pyridin-4-amine] | 56 | 4.3 | 58
CCOc1ncccc1-c1cc(NCc2ncn(C)n2)c2c(C(C)C)nn(C)c2n1 [Example 4, 6-(2-ethoxy-3-pyridyl)-3-isopropyl-1-methyl-N-[(1-methyl-1,2,4-triazol-3-yl)methyl]pyrazolo[3,4-b]pyridin-4-amine] | 11 | 0.34 | 13
CCOc1ncccc1-c1cc(NCc2noc(C)n2)c2c(C(C)C)nn(C)c2n1 [Example 5, 6-(2-ethoxy-3-pyridyl)-3-isopropyl-1-methyl-N-[(5-methyl-1,2,4-oxadiazol-3-yl)methyl]pyrazolo[3,4-b]pyridin-4-amine] | 8.9 | 1.1 | 19
CCOc1ncccc1-c1cc(NCc2cc(C)[nH]n2)c2c(C(C)C)nn(C)c2n1 [Example 6, 6-(2-ethoxy-3-pyridyl)-3-isopropyl-1-methyl-N-[(5-methyl-1H-pyrazol-3-yl)methyl]pyrazolo[3,4-b]pyridin-4-amine] | 14 | 1.2 | 20
CCOc1ncccc1-c1cc(NCc2ccnc(OC)c2)c2c(C(C)C)nn(C)c2n1 [Example 7, 6-(2-ethoxy-3-pyridyl)-3-isopropyl-N-[(2-methoxy-4-pyridyl)methyl]-1-methyl-pyrazolo[3,4-b]pyridin-4-amine] | 14 | 2.6 | 18
CCOc1ncccc1-c1cc(NCc2cn(C)cn2)c2c(C(C)C)nc(C)n2n1 [Example 8, 2-(2-ethoxy-3-pyridyl)-5-isopropyl-7-methyl-N-[(1-methylimidazol-4-yl)methyl]imidazo[1,5-b]pyridazin-4-amine] | 2.4 | 0.22 | 2.6
CCOc1ncccc1-c1cc(NCc2coc(C)n2)c2c(C(C)C)nc(C)n2n1 [Example 9, 2-(2-ethoxy-3-pyridyl)-5-isopropyl-7-methyl-N-[(2-methyloxazol-4-yl)methyl]imidazo[1,5-b]pyridazin-4-amine] | 30 | 4.3 | 29
CCOc1ncccc1-c1cc(NCc2cc[nH]n2)c2c(C(C)C)nc(C)n2n1 [Example 10, 2-(2-ethoxy-3-pyridyl)-5-isopropyl-7-methyl-N-(1H-pyrazol-3-ylmethyl)imidazo[1,5-b]pyridazin-4-amine] | 15 | 1.6 | 13
CCOc1ncccc1-c1cc(NCc2cnn(C)c2)c2c(C(C)C)nn(C)c2n1 [Example 19, 6-(2-ethoxy-3-pyridyl)-3-isopropyl-1-methyl-N-[(1-methylpyrazol-4-yl)methyl]pyrazolo[3,4-b]pyridin-4-amine] | 44 | 5.8 | 56

The next lines start with the values.

IC50 (PDE1A) [nM] | IC50 (PDE1B) [nM] | IC50 (PDE1C) [nM] | Compound
5.8 | 0.64 | 4.9 | CCOc1ncccc1-c1cc(NCc2cnn(C)c2)c2c(C(C)CC)nc(C)n2n1 (single isomer, unassigned; (+)) [Example 48, (+)-2-(2-ethoxy-3-pyridyl)-7-methyl-N-[(1-methylpyrazol-4-yl)methyl]-5-[1-methylpropyl]imidazo[1,5-b]pyridazin-4-amine]
57 | 4.3 | 31 | CCOc1ncccc1-c1cc(NCc2cc[nH]n2)c2c(C(C)CC)nc(C)n2n1 (single isomer, unassigned; (+)) [Example 51, (+)-2-(2-ethoxy-3-pyridyl)-7-methyl-N-(1H-pyrazol-3-ylmethyl)-5-[1-methylpropyl]imidazo[1,5-b]pyridazin-4-amine]
62 | 12 | 11 | CCOc1ncccc1-c1cc(NCc2ccnc(OC)c2)c2c(C(C)CC)nc(C)n2n1 (single isomer, unassigned; (+)) [Example 53, (+)-2-(2-ethoxy-3-pyridyl)-N-[(2-methoxy-4-pyridyl)methyl]-7-methyl-5-[1-methylpropyl]imidazo[1,5-b]pyridazin-4-amine]
44 | 7.5 | 32 | CCOc1ncccc1-c1cc(NCc2cnn(C)c2)c2c(C(C)CC)nc(C)n2n1 (single isomer, unassigned; (-)) [Example 47, (−)-2-(2-ethoxy-3-pyridyl)-7-methyl-N-[(1-methylpyrazol-4-yl)methyl]-5-[1-methylpropyl]imidazo[1,5-b]pyridazin-4-amine]
12 | 0.65 | 6.1 | CCOc1ncccc1-c1cc(NCc2cc[nH]n2)c2c(C(C)CC)nc(C)n2n1 (single isomer, unassigned; (-)) [Example 52, (−)-2-(2-ethoxy-3-pyridyl)-7-methyl-N-(1H-pyrazol-3-ylmethyl)-5-[1-methylpropyl]imidazo[1,5-b]pyridazin-4-amine]
9.6 | 1.8 | 4.4 | CCOc1ncccc1-c1cc(NCc2ccnc(OC)c2)c2c(C(C)CC)nc(C)n2n1 (single isomer, unassigned; (-)) [Example 54, (−)-2-(2-ethoxy-3-pyridyl)-N-[(2-methoxy-4-pyridyl)methyl]-7-methyl-5-[1-methylpropyl]imidazo[1,5-b]pyridazin-4-amine]
2 | 0.28 | 2.6 | CCOc1ncccc1-c1cc(NCc2ncn(C)n2)c2c(C(C)C)nc(C)n2n1 [Example 11, 2-(2-ethoxy-3-pyridyl)-5-isopropyl-7-methyl-N-[(1-methyl-1,2,4-triazol-3-yl)methyl]imidazo[1,5-b]pyridazin-4-amine]
3.6 | 0.35 | 4 | CCOc1ncccc1-c1cc(NCc2noc(C)n2)c2c(C(C)C)nc(C)n2n1 [Example 12, 2-(2-ethoxy-3-pyridyl)-5-isopropyl-7-methyl-N-[(5-methyl-1,2,4-oxadiazol-3-yl)methyl]imidazo[1,5-b]pyridazin-4-amine]
4.1 | 0.31 | 2.7 | CCOc1ncccc1-c1cc(NCc2cc(C)[nH]n2)c2c(C(C)C)nc(C)n2n1 [Example 13, 2-(2-ethoxy-3-pyridyl)-5-isopropyl-7-methyl-N-[(5-methyl-1H-pyrazol-3-yl)methyl]imidazo[1,5-b]pyridazin-4-amine]
6.2 | 1.5 | 5.1 | CCOc1ncccc1-c1cc(NCc2cncc(OC)c2)c2c(C(C)C)nc(C)n2n1 [Example 14, 2-(2-ethoxy-3-pyridyl)-5-isopropyl-N-[(5-methoxy-3-pyridyl)methyl]-7-methyl-imidazo[1,5-b]pyridazin-4-amine]
7.3 | 1.7 | 9 | CCOc1ncccc1-c1cc(NCc2ccnc(OC)c2)c2c(C(C)C)nc(C)n2n1 [Example 15, 2-(2-ethoxy-3-pyridyl)-5-isopropyl-N-[(2-methoxy-4-pyridyl)methyl]-7-methyl-imidazo[1,5-b]pyridazin-4-amine]
19 | 2.8 | 16 | CCOc1ncccc1-c1cc(NCc2cnc(C)o2)c2c(C(C)C)nc(C)n2n1 [Example 16, 2-(2-ethoxy-3-pyridyl)-5-isopropyl-7-methyl-N-[(2-methyloxazol-5-yl)methyl]imidazo[1,5-b]pyridazin-4-amine]
6.1 | 1.5 | 5.7 | CCOc1ncccc1-c1cc(NCc2cnc(C)s2)c2c(C(C)C)nc(C)n2n1 [Example 17, 2-(2-ethoxy-3-pyridyl)-5-isopropyl-7-methyl-N-[(2-methylthiazol-5-yl)methyl]imidazo[1,5-b]pyridazin-4-amine]
33 | 5.7 | 16 | CCOc1ncccc1-c1cc(NCc2cn[nH]c2)c2c(C(C)C)nc(C)n2n1 [Example 18, 2-(2-ethoxy-3-pyridyl)-5-isopropyl-7-methyl-N-(1H-pyrazol-4-ylmethyl)imidazo[1,5-b]pyridazin-4-amine]
